Columns and labels:
Caspase-3 in LnCaP cells = test: Caspase 3/7 induction; assay type: cell-based, human; settings: 10 μM concentration
Experimental: (§1) Akt1 levels in the cell lysates were measured using kits from R&D Systems used according to the manufacturer's recommendations. Cell lysates were assayed at a 1:24 dilution for the Akt1 ELISA. The Akt1 concentrations in the cell lysates were extrapolated from the standard curve and corrected for lysate protein concentration. Akt1 levels were determined using a micro-titer plate reader (Model #Synergy HT; BioTek Inc., Winooski, Vt.). LnCaP cells were cultured in culture medium and passaged after lifting using 0.25% trypsin/EDTA. LnCaP cells were seeded into a 96 well tissue culture plate at 1.3×10^4 cells per well in a volume of 100 uL of culture medium. […] Caspase 3/7 activity was measured using a Homogeneous Caspase 3/7 Assay Kit used according to the manufacturer's recommendations. In detail, an equal volume of Caspase 3/7 Assay Kit reagent was added to the wells and fluorescence readings (Ex/Em 485/528) were taken after 3, 6, and 23 h at ambient temperature using a micro-titer plate reader. […] Fluorescence intensities of the dilutions were measured to obtain a standard curve. […] Cell viability was measured with the ATPlite Kit used according to the manufacturer's recommendation. […] Cultures were mixed at 1,000 rpm for 2 min in the dark and luminescence quantification was accomplished using a micro-titer plate reader (POLARstar Omega micro-titer plate reader; BMG Labtech).

Hsp90 = test: Rat CNS Hsp90 inhibition (ex vivo labeled geldanamycin displacement in CNS lysates); settings: 40 mg/kg
LnCaP cells = test: Tumor cell viability, ATPlite; assay type: cell-based; settings: Homo sapiens, 72 h, read-out: EC50, decrease in cell viability
Experimental: as §1

R127 = test: Efficacy in ovarian cancer cells, ADP-GLO; assay type: cell-based
Experimental: (§2) The effect of SBI-0640725 on cell viability was determined by measuring cellular dehydrogenase activity (U251MG and MBA-MD-231 cells) or by measuring ADP levels (HepG2) after treating cells for 72 hours with increasing concentrations of SBI-0640725. To measure dehydrogenase activity, CCK-8 kit reagent (Dojindo) was added to the wells and incubated for 2 hours, after which absorbance was measured at 450 nm using a Synergy HT micro-titer plate reader (Biotek). To measure ADP levels, ADP-GLO reagent (Life Technologies) was added to the wells, and luminescence was measured after a 30 minute incubation using a POLARstar Omega micro-titer plate reader (BMG).
(§3) The table below summarizes efficacy of SBI-0640725 in various cancer cell lines, including U251MG, MDA-MB-231, and HepG2, using ADP-GLO assay described above. As used herein “efficacy” (EC50) is the concentration of a compound that produces half-maximal response in a cellular assay.

R182 = test: Efficacy in ovarian cancer cells, ADP-GLO; assay type: cell-based
Experimental: as §2, §3

MDA-MB-231 = test: Cell viability / efficacy in breast cancer cells; assay type: cell-based
Experimental: as §2, §3

U251MG cells [1] = test: Mitochondrial stress response, oxygen consumption rate (OCR); assay type: cell-based, human; settings: FCCP as inducer of stress
Experimental: In further experiments, the effect of SBI-0640725 on mitochondrial stress response in U251MG cells was determined by measuring the mitochondrial oxygen consumption rate (OCR). The OCR was measured in real time, both before, and after treating U251 MG cells with increasing concentrations of SBI-0640725. The time of compound addition is indicated in FIG. 15A by the vertical line labeled D. Mitochondrial bioenergetics stress was determined by treating the cells sequentially with 0.125 mg/ml oligomycin (OA; vertical line O), […] carbonyl cyanide-4-(trifluoromethoxy)phenylhydrazone (FCCP; vertical line F) and […] rotenone (vertical line R) while continuing OCR measurement. Oligomycin (OA) generates mitochondrial stress by inhibiting ATP synthase and FCCP uncouples mitochondrial oxidative phosphorylation. The OCR data shown in FIG. 15A is presented in FIG. 15B after normalization using cell protein concentration, and subtracting extra-mitochondrial respiration, as determined by the respiration observed upon addition of rotenone. These experiments tested whether SBI-0640725 could inhibit the ability of mitochondria to compensate for these stressors. […] FCCP dissipates the electrochemical gradient that drives ATP synthesis. Thus, in order to maintain the membrane potential, mitochondria needs to increase the flow of electrons, thereby reflecting an increase in the OCR.

U251MG cells [2] = test: Mitochondrial integrity in cells, TMRE fluorescence; assay type: cell-based, human; settings: 48 hours
Experimental: Additional experiments were performed to determine the effect of SBI-0640725 on mitochondrial integrity. U251MG cells were treated with tetramethylrhodamine ethyl ester (TMRE), and fluorescence was visualized using fluorescence confocal microscopy (FIG. 16 panel A), or quantitated using a fluorimeter (FIG. 16 panel B) after cells had been treated with increasing concentrations of SBI-0640725 for 48 hours. […] In experiments using isolated mitochondria, mitochondrial membrane potential was determined as a measure of mitochondrial integrity. TMRE-loaded mitochondria isolated from U251MG cells were treated with either 10 μM (left bar of the pair in FIG. 17) or 2 μM (right bar of the pair in FIG. 17) SBI-0640725 while continually monitoring changes in fluorescence intensity at 30° C.

[3] = system: Caspase 3/7 activity in U251MG cells; test: Cellular Caspase-3/7 luminescence assay; assay type: cell-based, human; settings: 72 hours
Experimental: Further, the effect of SBI-0640725 on cellular caspase levels was also quantitated in U251MG, MBA-MD-231 and HepG2 cells. Each cell type was treated with increasing concentrations of SBI-0640725 for 72 hours. Quantification of total cellular Caspase-3 and 7 activity was accomplished using a Caspase-3/7 luminescence assay kit (Promega) according to the manufacturer's recommendations, and analyzed with a POLARstar Omega micro-titer plate reader (BMG). […] Caspase activity is a marker for apoptotic cell death.

SMILES | induction of Caspase-3 (Caspase-3 in LnCaP cells) | inhibition of Hsp90 activity in CNS tissues (Hsp90) | EC50 (LnCaP cells) [nM] | EC50 (R127) [nM] | EC50 (R182) [nM] | EC50 (MDA-MB-231; Homo sapiens, Breast Cancer, MDA-MB-231, ADP-GLO) [nM] | cell viability (MDA-MB-231; MBA-MD-231, 72 hours, dehydrogenase activity (CCK-8)) | mitochondrial stress response (OCR) (U251MG cells [1]) | mitochondrial integrity (retention of de-esterified TMRE) (U251MG cells [2]) | Caspase 3/7 activity [3]
COc1c(C)cnc(CN(CCc2ccccc2)c2cc(Cl)nc(N)n2)c1C [SBI-0639353, 6-Chloro-N4-((4-methoxy-3,5-dimethylpyridin-2-yl)methyl)-N4-phenethylpyrimidine-2,4-diamine] | induction of Caspase-3 | inhibition of Hsp90 activity | 3800 |  |  |  |  |  |  | 
COc1c(C)cnc(CN(CCc2ccc(F)cc2)c2cc(Cl)nc(N)n2)c1C [SBI-0640725] |  |  |  | 410 | 690 | 2400 | reduction in cell viability | significantly inhibit the ability of mitochondria to compensate for stress | decrease proportionately with increasing concentrations | increase in Caspase 3/7 activity

From patent US20160311795A1, “PYRIMIDINE DIAMINE DERIVATIVES AS INHIBITORS OF CYTOSOLIC HSP90” (CALASIA PHARMACEUTICALS, INC., priority 2012, published 2016)
